Data published in EP0384722A1, “Chemical compositions” (PITMAN-MOORE LIMITED, priority 1989, dated 1990).
Read-outs that look alike come from different tables or passages of the source.

Experiments:
[1] = Comparison of bioavailability of Compound A and Trimethoprim (TMP) administered by i/v injection, dogs; assay type: in vivo; settings: i/v injection at 2 mg/kg; for half-life: both sexes, dog, read-out: Est.t1/2 (converted); for half-life / concentration at 0 h / concentration at 1 h / concentration at 3 h / concentration at 5 h / concentration at 7 h / concentration at 24 h / concentration at 30 h / concentration at 48 h: beagle, intravenous, serum; for concentration at 0 h: 0 hours post inj.; for concentration at 1 h: 1 hours post inj.; for concentration at 3 h: 3 hours post inj.; for concentration at 5 h: 5 hours post inj.; for concentration at 7 h: 7 hours post inj.; for concentration at 24 h: 24 hours post inj.; for concentration at 30 h: 30 hours post inj.; for concentration at 48 h: 48 hours post inj.
Protocol: One male beagle dog, 13.5 kg and one female beagle, 11.1kg, both aged about 18 months, received i/v injections (cephalic vein) of the test compounds at 2mg base/kg, using 15mg base /ml aqueous solutions.

[2] = Comparison of bioavailability of Compound A and Trimethoprim (TMP) administered by i/v injection, cats; assay type: in vivo; settings: serum, i/v injection at 2 mg/kg; for Est.t1/2 / half-life: cats; for half-life / concentration at 0 h / concentration at 1 h / concentration at 3 h / concentration at 5 h / concentration at 7 h / concentration at 24 h: female, cat, intravenous; for half-life: read-out: Est.t1/2 (converted); for concentration at 0 h / concentration at 1 h / concentration at 3 h / concentration at 5 h / concentration at 7 h / concentration at 24 h: 2 mg/kg; for concentration at 0 h: 0 hours post inj.; for concentration at 1 h: 1 hours post inj.; for concentration at 3 h: 3 hours post inj.; for concentration at 5 h: 5 hours post inj.; for concentration at 7 h: 7 hours post inj.; for concentration at 24 h: 24 hours post inj.
Protocol: Two young adult female cats, bodyweight around 3 kg, were given i/v injections at 2 mg/kg of TMP or Compound A, using 3 mg/base ml aqueous solutions.

[3] = female, dog F, read-out: Serum conc. of TMP
[4] = male, dog M, read-out: Serum conc. of TMP
[5] = cat 1, read-out: Serum conc. of TMP
[6] = cat 2, read-out: Serum conc. of TMP
[7] = female, dog F, read-out: Serum conc. of Compound A
[8] = male, dog M, read-out: Serum conc. of Compound A
[9] = cat 3, read-out: Serum conc. of Compound A
[10] = cat 4, read-out: Serum conc. of Compound A

**Q.** What does the source list for `COc1cc(Cc2cnc(N)nc2N)cc(OC)c1OC` [TMP, trimethoprim]?
**A.** half-life ([1]; dogs): 2.6 h; concentration at 0 h [1, 3]: 0 µg/mL; concentration at 1 h [1, 3]: 1.2 µg/mL; concentration at 3 h [1, 3]: 0.74 µg/mL; concentration at 5 h [1, 3]: 0.31 µg/mL; concentration at 7 h [1, 3]: 0.21 µg/mL; concentration at 24 h [1, 3]: 0 µg/mL; concentration at 30 h [1, 3]: 0 µg/mL; concentration at 48 h [1, 3]: 0 µg/mL; concentration at 0 h [1, 4]: 0 µg/mL; concentration at 1 h [1, 4]: 1.1 µg/mL; concentration at 3 h [1, 4]: 0.8 µg/mL; concentration at 5 h [1, 4]: 0.4 µg/mL; concentration at 7 h [1, 4]: 0.26 µg/mL; concentration at 24 h [1, 4]: 0 µg/mL; concentration at 30 h [1, 4]: 0 µg/mL; concentration at 48 h [1, 4]: 0 µg/mL; Est.t1/2 [2]: 0.75 h; half-life [2]: 0.75 h; concentration at 0 h [2, 5]: 0 µg/mL; concentration at 1 h [2, 5]: 0.46 µg/mL; concentration at 3 h [2, 5]: 0.06 µg/mL; concentration at 5 h [2, 5]: 0 µg/mL; concentration at 7 h [2, 5]: 0 µg/mL; concentration at 24 h [2, 5]: 0 µg/mL; concentration at 0 h [2, 6]: 0 µg/mL; concentration at 1 h [2, 6]: 0.44 µg/mL; concentration at 3 h [2, 6]: 0.084 µg/mL; concentration at 5 h [2, 6]: 0 µg/mL; concentration at 7 h [2, 6]: 0 µg/mL; concentration at 24 h [2, 6]: 0 µg/mL

**Q.** For `Cc1cc(Cc2cnc(N)nc2N)c2cccnc2c1N(C)C` [Compound A, 2,4-diamino-5-(8-dimethylamino-7-methyl-5-quinolylmethyl) pyrimidine], which half-life ([1]; dogs) is on record?
**A.** Its half-life is 15 h.

**Q.** What about the “half-life in comparison with TMP” value ([1]; dogs) of the same compound?
**A.** Its value is “greatly extended half-life in comparison with TMP”.

**Q.** And the concentration at 0 h [1, 7]?
**A.** Its concentration at 0 h is 0 µg/mL.

**Q.** What about the concentration at 1 h [1, 7] of the same compound?
**A.** The concentration at 1 h was 0.41 µg/mL.

**Q.** And the concentration at 3 h [1, 7]?
**A.** Its concentration at 3 h is 0.34 µg/mL.

**Q.** What about the concentration at 5 h [1, 7] of the same compound?
**A.** The concentration at 5 h was 0.3 µg/mL.

**Q.** And the concentration at 7 h [1, 7]?
**A.** The concentration at 7 h was 0.29 µg/mL.

**Q.** And the concentration at 24 h [1, 7]?
**A.** The concentration at 24 h was 0.124 µg/mL.

**Q.** What about the concentration at 30 h [1, 7] of the same compound?
**A.** Its concentration at 30 h is 0.1 µg/mL.

**Q.** What about the concentration at 48 h [1, 7] of the same compound?
**A.** The concentration at 48 h was 0.046 µg/mL.

**Q.** And the concentration at 0 h [1, 8]?
**A.** Its concentration at 0 h is 0 µg/mL.

**Q.** And the concentration at 1 h [1, 8]?
**A.** The concentration at 1 h was 0.24 µg/mL.

**Q.** And the concentration at 3 h [1, 8]?
**A.** The concentration at 3 h was 0.27 µg/mL.

**Q.** And the concentration at 5 h [1, 8]?
**A.** Its concentration at 5 h is 0.26 µg/mL.

**Q.** And the concentration at 7 h [1, 8]?
**A.** Its concentration at 7 h is 0.25 µg/mL.

**Q.** What about the concentration at 24 h [1, 8] of the same compound?
**A.** Its concentration at 24 h is 0.11 µg/mL.

**Q.** And the concentration at 48 h [1, 8]?
**A.** Its concentration at 48 h is 0.039 µg/mL.

**Q.** And the “Est.t1/2” value [2]?
**A.** The value was 2.4 h.

**Q.** What about the half-life [2] of the same compound?
**A.** Its half-life is 2.4 h.

**Q.** And the concentration at 0 h [2, 9]?
**A.** Its concentration at 0 h is 0 µg/mL.

**Q.** What about the concentration at 1 h [2, 9] of the same compound?
**A.** Its concentration at 1 h is 0.32 µg/mL.

**Q.** And the concentration at 3 h [2, 9]?
**A.** Its concentration at 3 h is 0.16 µg/mL.

**Q.** And the concentration at 5 h [2, 9]?
**A.** Its concentration at 5 h is 0.1 µg/mL.

**Q.** What about the concentration at 7 h [2, 9] of the same compound?
**A.** The concentration at 7 h was 0.072 µg/mL.

**Q.** What about the concentration at 24 h [2, 9] of the same compound?
**A.** The concentration at 24 h was 0 µg/mL.

**Q.** What about the concentration at 0 h [2, 10] of the same compound?
**A.** Its concentration at 0 h is 0 µg/mL.

**Q.** And the concentration at 1 h [2, 10]?
**A.** Its concentration at 1 h is 0.31 µg/mL.

**Q.** What about the concentration at 3 h [2, 10] of the same compound?
**A.** The concentration at 3 h was 0.14 µg/mL.

**Q.** What about the concentration at 5 h [2, 10] of the same compound?
**A.** The concentration at 5 h was 0.086 µg/mL.

**Q.** And the concentration at 24 h [2, 10]?
**A.** Its concentration at 24 h is 0 µg/mL.
